A short description of assay [1]: Reduction of ATP and Kcl-induced increase in cytosolic Ca2+ ion concentration mouse peptidergic nociceptive DRG neuron assessed as neuron population at 10 uM measured after 1 hr by Fura2AM dye based fluorescence microscopic analysis. Also on record: scale not given: the % may be the effect or the level left. It is filed as functional.
A short description of assay [2]: Induction of ATP and Kcl-induced increase in cytosolic Ca2+ ion concentration mouse non-peptidergic nociceptive DRG neuron assessed as neuron population at 10 uM measured after 1 hr by Fura2AM dye based fluorescence microscopic analysis. Type of assay: functional.
The nature of assay [3]: Reduction of ATP and Kcl-induced increase in cytosolic Ca2+ ion concentration mouse DRG other neuron subtype assessed as neuron population at 10 uM measured after 1 hr by Fura2AM dye based fluorescence microscopic analysis. Type of assay: functional. Also on record: scale not given: the % may be the effect or the level left.
In assay [4] the target is T1, GABA-A receptor; alpha-5/beta-3/gamma-2 (Homo sapiens, UniProt P18507+P28472+P31644).
T1 sequence (P18507 whole entry): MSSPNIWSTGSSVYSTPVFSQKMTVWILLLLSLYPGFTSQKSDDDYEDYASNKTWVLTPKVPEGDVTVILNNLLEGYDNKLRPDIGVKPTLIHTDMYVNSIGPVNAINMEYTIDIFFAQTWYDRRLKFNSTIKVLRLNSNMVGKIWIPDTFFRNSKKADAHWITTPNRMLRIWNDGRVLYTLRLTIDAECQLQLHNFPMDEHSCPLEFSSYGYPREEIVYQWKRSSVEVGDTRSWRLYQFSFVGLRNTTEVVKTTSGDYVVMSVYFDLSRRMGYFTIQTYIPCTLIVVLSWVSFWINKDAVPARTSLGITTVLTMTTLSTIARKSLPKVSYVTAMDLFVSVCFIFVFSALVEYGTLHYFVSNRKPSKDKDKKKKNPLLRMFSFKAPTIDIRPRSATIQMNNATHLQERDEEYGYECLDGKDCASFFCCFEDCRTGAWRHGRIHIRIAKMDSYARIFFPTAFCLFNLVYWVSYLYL
T1 sequence (P28472 whole entry): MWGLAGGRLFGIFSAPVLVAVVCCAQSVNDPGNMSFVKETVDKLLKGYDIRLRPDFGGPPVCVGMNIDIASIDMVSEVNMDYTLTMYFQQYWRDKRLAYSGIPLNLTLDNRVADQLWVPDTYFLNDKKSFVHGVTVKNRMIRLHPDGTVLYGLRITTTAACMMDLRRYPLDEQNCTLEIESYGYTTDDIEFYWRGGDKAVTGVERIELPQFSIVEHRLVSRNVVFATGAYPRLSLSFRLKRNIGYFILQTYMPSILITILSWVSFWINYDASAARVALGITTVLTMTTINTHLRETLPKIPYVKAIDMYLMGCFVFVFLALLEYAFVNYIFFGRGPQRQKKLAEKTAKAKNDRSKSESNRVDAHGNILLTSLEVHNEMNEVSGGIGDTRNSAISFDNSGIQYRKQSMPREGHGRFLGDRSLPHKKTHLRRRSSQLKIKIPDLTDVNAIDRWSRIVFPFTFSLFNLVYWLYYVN
T1 sequence (P31644 whole entry): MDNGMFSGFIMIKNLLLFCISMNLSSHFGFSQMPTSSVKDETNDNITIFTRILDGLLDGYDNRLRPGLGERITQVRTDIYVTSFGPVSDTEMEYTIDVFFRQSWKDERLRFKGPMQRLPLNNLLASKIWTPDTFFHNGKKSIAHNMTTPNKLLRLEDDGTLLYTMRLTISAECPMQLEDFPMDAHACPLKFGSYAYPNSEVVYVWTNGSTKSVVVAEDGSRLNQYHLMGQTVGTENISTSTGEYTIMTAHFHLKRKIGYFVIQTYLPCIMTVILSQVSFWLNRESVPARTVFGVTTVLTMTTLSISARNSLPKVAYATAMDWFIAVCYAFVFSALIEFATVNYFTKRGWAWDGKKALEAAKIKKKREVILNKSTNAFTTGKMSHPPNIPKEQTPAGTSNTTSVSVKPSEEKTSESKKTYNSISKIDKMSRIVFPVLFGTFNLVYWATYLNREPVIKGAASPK
Kind of assay: Negative allosteric modulation activity at human GABAA alpha5beta3gamma2 stably expressed in HEK cells by patch clamp method. It is filed as cell-based. A general note: The patch-clamp technique gives a direct electrical read-out from membranes.

Assay [5] has as its target T2, GABA A receptor alpha-1/beta-1/gamma-2 (Homo sapiens, UniProt P14867+P18505+P18507).
T2 sequence (P14867 whole entry): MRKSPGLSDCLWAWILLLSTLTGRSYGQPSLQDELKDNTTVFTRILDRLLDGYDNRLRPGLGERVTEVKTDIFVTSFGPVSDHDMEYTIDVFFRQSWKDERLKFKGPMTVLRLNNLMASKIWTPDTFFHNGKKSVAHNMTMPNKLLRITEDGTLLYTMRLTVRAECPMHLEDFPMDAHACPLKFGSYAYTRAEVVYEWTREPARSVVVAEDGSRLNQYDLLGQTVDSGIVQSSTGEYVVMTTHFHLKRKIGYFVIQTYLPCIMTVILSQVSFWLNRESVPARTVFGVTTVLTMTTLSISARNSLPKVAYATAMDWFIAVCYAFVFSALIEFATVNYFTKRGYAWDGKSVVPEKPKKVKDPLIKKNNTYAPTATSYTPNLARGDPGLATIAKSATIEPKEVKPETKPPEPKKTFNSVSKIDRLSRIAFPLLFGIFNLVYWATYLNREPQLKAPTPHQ
T2 sequence (P18507 whole entry): T1 sequence (P18507 whole entry)
T2 sequence (P18505 whole entry): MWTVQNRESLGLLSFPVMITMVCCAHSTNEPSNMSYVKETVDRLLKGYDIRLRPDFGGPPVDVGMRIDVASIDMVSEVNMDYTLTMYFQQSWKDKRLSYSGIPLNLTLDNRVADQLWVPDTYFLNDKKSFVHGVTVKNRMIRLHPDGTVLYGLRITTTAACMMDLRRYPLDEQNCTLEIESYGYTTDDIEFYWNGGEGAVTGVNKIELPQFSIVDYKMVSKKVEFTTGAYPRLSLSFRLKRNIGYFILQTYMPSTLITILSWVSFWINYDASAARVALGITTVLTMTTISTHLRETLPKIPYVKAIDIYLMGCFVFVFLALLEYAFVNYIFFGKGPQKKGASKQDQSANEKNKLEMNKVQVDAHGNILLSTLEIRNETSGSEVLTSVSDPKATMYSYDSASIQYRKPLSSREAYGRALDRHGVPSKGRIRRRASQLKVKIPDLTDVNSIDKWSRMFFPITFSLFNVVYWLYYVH
Kind of assay: Negative allosteric modulation activity at human GABAA alpha1beta1gamma2 stably expressed in HEK cells by whole cell patch clamp method. Type of assay: cell-based.

The results in this text go back to ChEMBL document CHEMBL5032490, “Neuroactive Type-A γ-Aminobutyric Acid Receptor Allosteric Modulator Steroids from the Hypobranchial Gland of Marine Mollusk, Conus geographus” (J Med Chem, 2021).

The structures appear in SMILES notation.

As to `CC(C)CCC[C@@H](C)[C@H]1CC[C@H]2[C@@H]3C(=O)C=C4C=CCC[C@]4(C)[C@H]3CC[C@]12C`, the Activity in assay [1] is on record as 4%; in assay [2], 39%; in assay [3], 5%. Also, the IC50 was 19.4 µM in assay [4] and 1.5 µM in assay [5].

In general, IC50 refers to the concentration at which inhibition is half-maximal.
